Among the data in patent publication US8492374B2, “Azaazulene compounds” (Industrial Technology Research Institute, priority 2009, dated 2013) are inhibition and IC50 values, retold here.

One experiment concerns the target T1, FLT-3 kinase (Homo sapiens, UniProt P36888).
T1 construct: human FLT-3 (Arg571-Ser993); GST (N); purchased Cell Signaling Technology HTScan FLT-3 Kinase Assay Kit; host or cells: baculovirus expression system
T1 sequence (P36888 571-993): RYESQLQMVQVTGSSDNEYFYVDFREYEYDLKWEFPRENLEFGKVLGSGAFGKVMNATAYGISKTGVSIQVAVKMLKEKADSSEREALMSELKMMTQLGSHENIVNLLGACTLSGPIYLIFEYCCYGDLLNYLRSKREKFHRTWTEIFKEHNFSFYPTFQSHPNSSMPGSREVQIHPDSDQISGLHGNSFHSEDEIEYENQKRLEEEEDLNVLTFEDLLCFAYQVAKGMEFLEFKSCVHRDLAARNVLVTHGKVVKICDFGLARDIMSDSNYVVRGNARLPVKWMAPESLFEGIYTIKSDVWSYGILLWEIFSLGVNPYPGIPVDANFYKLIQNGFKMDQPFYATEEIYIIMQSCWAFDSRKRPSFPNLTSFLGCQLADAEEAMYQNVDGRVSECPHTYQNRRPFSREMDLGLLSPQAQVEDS
Kind of experiment: FLT-3 kinase DELFIA assay (HTScan FLT-3 Kinase Assay Kit). As to conditions: 20 uM ATP; for inhibition at 0.1 µM: 0.1 uM compound; for inhibition at 1 µM: 1 uM compound. Format: biochemical. The procedure:
Azaazulene Compounds of this invention were treated for their efficacy in inhibiting activities of FLT-3, c-KIT and KDR kinases by biochemical DELFIA (Dissociation Enhanced Lanthanide FIA) assays according to the procedure described below. The assays were conducted by, Division of Cell Engineering, Biomedical Engineering Research Laboratories, Industrial Technology Research Institute, Bldg. 53, 195, sec. 4, Chung Hsing Rd. Chutung, Hsinchu, Taiwan 310, R.O.C.
The FLT-3 assay was conducted following the protocol described in Protocol for HTScang FLT-3 Kinase Assay Kit (Cell Signaling Technology®).

Experiment [1] concerns MV4-11 (FLT3-ITD) cell line. Kind of experiment: In vitro cell activity assay (MTT cell viability, 72 hours). In kind it is cell-based. Conditions: Homo sapiens, 72 hours at 37° C., 10,000 cells per well, read-out: IC50 against MV4-11. As to the method:
Human MV4-11 (FLT3-ITD) cell line was obtained from American Tissue Culture Collection (ATCC number: CRL-9591). The cell line was cultured with RPMI 1640 containing 10% fetal bovine serum, 1 mmol/L sodium pyruvate and 10 mmol/L HEPES (pH 7.4). The cell was grown and maintained in a humidified atmosphere at 37° C. and 5% carbon dioxide.
MV4-11 cell was plated in 96-well microtiter plates (10,000 cells per well) and serial dilutions of indicated compounds were added. At the end of the incubation period (72 hours at 37° C.), cell viability was determined by a tetrazolium dye, MTT (3-(4,5-dimethylthiazol-2-yl)-2,5-diphenyl tetrazolium bromide) (Promega, Madison, Wis.). The formazan crystals were dissolved by DMSO, and the absorbance at a wavelength of 600 nm was recorded using an ELISA plate reader. IC50 values were calculated using nonlinear regression and defined as the concentration needed for a 50% reduction in absorbance of treated versus untreated control cells.

For orientation: inhibition means the share of the control response that was lost under treatment. By IC50 is commonly meant the concentration that gives 50% inhibition. Turning to `CN1CCN(c2ccc3[nH]c(-c4c5cccccc-5[nH]c4=O)nc3c2F)CC1` [Compound B51], on FLT-3 kinase, the inhibition at 0.1 µM is 20.6% and 1 µM produced 66.6% inhibition. In addition, the half-maximal inhibitory concentration (IC50) in experiment [1] was 99.1 nM.
The like results for `CN1CCN(c2c(F)cc3[nH]c(-c4c5cccccc-5[nH]c4=O)nc3c2F)CC1` [Compound B52] were, in that order, 20.3%, 42.5% and 635 nM.
The like results for `O=CN1CCN(c2ccc3[nH]c(-c4c5cccccc-5[nH]c4=O)nc3c2)CC1` [Compound B54] were, in that order, 46%, 91.6% and 74 nM.
The like results for `O=C(Nc1ccccc1)N1CCN(c2ccc3[nH]c(-c4c5cccccc-5[nH]c4=O)nc3c2)CC1` [Compound B55] were, in that order, 45.2%, 93.2% and 93.8 nM.
On FLT-3 kinase, `CS(=O)(=O)N1CCN(c2ccc3[nH]c(-c4c5cccccc-5[nH]c4=O)nc3c2)CC1` [Compound B57] gave an inhibition at 0.1 µM of 29.5% and an inhibition at 1 µM of 81.5%. Also, the IC50 in experiment [1] stood at 104 nM.
The like results for `O=c1[nH]c2cccccc-2c1-c1nc2cc(N3CCN(S(=O)(=O)CCCl)CC3)ccc2[nH]1` [Compound B58] were, in that order, 35.7%, 83.8% and 67.2 nM.
The like results for `O=Cc1ccc(N2CCN(c3ccc4[nH]c(-c5c6cccccc-6[nH]c5=O)nc4c3)CC2)o1` [Compound B59] were, in that order, 55.6%, 96.1% and 146 nM.
The like results for `O=c1[nH]c2cccccc-2c1-c1nc2cc(N3CCN(c4ccncc4)CC3)ccc2[nH]1` [Compound B60] were, in that order, 71.7%, 99.1% and 5.9 nM.
For the compound `O=c1[nH]c2cccccc-2c1-c1nc2cc(N3CCN(c4c(F)cncc4F)CC3)ccc2[nH]1` [Compound B61], on FLT-3 kinase, the inhibition at 0.1 µM stood at 17.7% and testing at 1 µM gave an inhibition of 74.3%. Besides, the IC50 in experiment [1] stood at 270 nM.
On FLT-3 kinase, `Nc1cc(N2CCN(c3ccc4[nH]c(-c5c6cccccc-6[nH]c5=O)nc4c3)CC2)ccn1` [Compound B62] had an inhibition at 0.1 µM of 9.5% and an inhibition at 1 µM of 13.7%. Also, in experiment [1], the 50% inhibitory concentration (IC50) is above 5000 nM.
The corresponding values for `O=c1[nH]c2cccccc-2c1-c1nc2cc(N3CCN(c4cccnc4)CC3)ccc2[nH]1` [Compound B63] are 18.9%, 33.4% and 473 nM.
The like results for `O=c1[nH]c2cccccc-2c1-c1nc2cc(N3CCN(c4ccccn4)CC3)ccc2[nH]1` [Compound B64] were, in that order, 29.5%, 79.2% and 250 nM.
The corresponding values for `O=c1[nH]c2cccccc-2c1-c1nc2cc(N3CCN(c4ncccc4[N+](=O)[O-])CC3)ccc2[nH]1` [Compound B65] are 16.3%, 60.5% and 278 nM.
Consider `O=c1[nH]c2cccccc-2c1-c1nc2cc(N3CCN(c4ncccc4Cl)CC3)ccc2[nH]1` [Compound B66], for which, on FLT-3 kinase, the inhibition at 0.1 µM came out at 20.3% and 1 µM produced 55.5% inhibition. Moreover, the IC50 in experiment [1] came out at 466 nM.
The like results for `Cc1cc(N2CCN(c3ccc4[nH]c(-c5c6cccccc-6[nH]c5=O)nc4c3)CC2)nc(N(C)C)n1` [Compound B67] were, in that order, 43.3%, 95.3% and 77.8 nM.
The corresponding values for `O=c1[nH]c2cccccc-2c1-c1nc2cc(N3CCN(c4ncccn4)CC3)ccc2[nH]1` [Compound B68] are 39.1%, 80.7% and 234 nM.
The like results for `O=c1[nH]c2cccccc-2c1-c1nc2cc(N3CCN(c4cnccn4)CC3)ccc2[nH]1` [Compound B69] were, in that order, 29.3%, 77.3% and 100 to 500 nM.
At FLT-3 kinase, `CN1CCN(C(=O)c2ccc3[nH]c(-c4c5cccccc-5[nH]c4=O)nc3c2)CC1` [Compound B71] registered an inhibition at 0.1 µM of 6.8% and an inhibition at 1 µM of 39.3%. Besides, the IC50 in experiment [1] came to 957 nM.
The corresponding values for `O=C(c1ccc2[nH]c(-c3c4cccccc-4[nH]c3=O)nc2c1)N1CCN(c2ccncc2)CC1` [Compound B72] are 36.8%, 85.5% and 50 to 100 nM.
The like results for `O=C(Nc1ccc(N2CCCC2)cn1)c1ccc2[nH]c(-c3c4cccccc-4[nH]c3=O)nc2c1` [Compound B73] were, in that order, 23.7%, 22.3% and around 1000 nM.
The like results for `CN1CCCN(C(=O)c2ccc3[nH]c(-c4c5cccccc-5[nH]c4=O)nc3c2)CC1` [Compound B74] were, in that order, 27.1%, 64% and 163 nM.
At FLT-3 kinase, `O=C(Nc1ccc2[nH]c(-c3c4cccccc-4[nH]c3=O)nc2c1)c1ccncc1` [Compound B75] yielded an inhibition at 0.1 µM of 13.4% and an inhibition at 1 µM of 37.1%. In experiment [1], the half-maximal inhibitory concentration (IC50) is around 1000 nM.
The like results for `O=c1[nH]c2cccccc-2c1-c1nc2cc(N3CCCNCC3)ccc2[nH]1` [Compound B76] were, in that order, 50%, 92.9% and 25.6 nM.
The like results for `CN1CCCN(c2ccc3[nH]c(-c4c5cccccc-5[nH]c4=O)nc3c2)CC1` [Compound B77] were, in that order, 47.1%, 94.3% and 39.2 nM.
The like results for `O=c1[nH]c2cccccc-2c1-c1nc2cc(N3CCCN(CCF)CC3)ccc2n1CCF` [Compound B78] were, in that order, 20.3%, 39.4% and 100 to 500 nM.
At FLT-3 kinase, `O=c1[nH]c2cccccc-2c1-c1nc2cc(N3CCCNCC3)ccc2n1CCF` [Compound B79] registered an inhibition at 0.1 µM of 22.3% and an inhibition at 1 µM of 36.6%. Moreover, the IC50 in experiment [1] amounted to 346 nM.
The corresponding values for `CN1CCCN(c2cc3nc(-c4c5cccccc-5[nH]c4=O)[nH]c3cc2F)CC1` [Compound B85] are 44.4%, 89.8% and 131 nM.
For `O=C(O)CCC(=O)N1CCCN(c2ccc3[nH]c(-c4c5cccccc-5[nH]c4=O)nc3c2)CC1` [Compound B89], on FLT-3 kinase, 0.1 µM produced 20% inhibition and the inhibition at 1 µM turned out to be 56.7%. Moreover, the IC50 in experiment [1] is above 5000 nM.
The corresponding values for `CS(=O)(=O)N1CCCN(c2ccc3[nH]c(-c4c5cccccc-5[nH]c4=O)nc3c2)CC1` [Compound B90] are 23%, 59.2% and 504 nM.
The like results for `CN(C)S(=O)(=O)N1CCCN(c2ccc3[nH]c(-c4c5cccccc-5[nH]c4=O)nc3c2)CC1` [Compound B91] were, in that order, 14.3%, 42.5% and 876 nM.
The like results for `O=C(c1ccc2[nH]c(-c3c4cccccc-4[nH]c3=O)nc2c1)N1CCCN(c2ccncc2)CC1` [Compound B92] were, in that order, 17.9%, 51.4% and 910 nM.
